Here are results for three compounds from ChEMBL document CHEMBL1129163, “Nucleosides and nucleotides. 155. synthesis, antitumor effects, and possible enzymatic activation mechanism of 5-phosphatidyl-2-deoxy-2-methylenecytidine (DMDC)” (1996).

Assay [1] deals with Mus musculus. Description: Compound was evaluated for the antitumor activity against i.p.-implanted M5076 sarcoma by measuring 60 day survivor in four mice a dose of 0.125 mM/kg/day given orally on days 1-5. The assay is classed as functional.
Assay [2] concerns Mus musculus. Description: Compound was evaluated for the antitumor activity against i.p.-implanted M5076 sarcoma in mice for a dose of 0.125 mM/kg/day on days 1-5. The assay is classed as functional.
The test system of assay [3] is Mus musculus. Description: Compound was evaluated for the antitumor activity against i.p.-implanted M5076 sarcoma by measuring 60 day survivor in four mice at a dose of 0.40 mM/kg/day given orally on days 1-5. The format is functional.
For assay [4], the system named is Mus musculus. The assay is described as follows: Compound was evaluated for the antitumor activity against i.p.-implanted M5076 sarcoma in mice for a dose of 0.40 mM/kg/day given intraperitoneally on days 1-5. The assay is classed as functional.
The test system of assay [5] is Mus musculus. Description: Compound was evaluated for the antitumor activity against i.p.-implanted L1210 leukemia in mice for a dose of 0.125 mM/kg/day given orally on days 1-5. The assay is classed as functional.
Assay [6] relates to Mus musculus. Description: Compound was evaluated for the antitumor activity against i.p.-implanted M5076 sarcoma by measuring 60 day survivor in four mice a dose of 0.40 mM/kg/day given orally on days 1-5. The format is functional.
Assay [7] has as its system Mus musculus. The assay is described as follows: Compound was evaluated for the antitumor activity against i.p.-implanted M5076 sarcoma in four mice for a dose of 0.40 mM/kg/day given intraperitoneally on days 1-5; Toxic. The format is functional, organism-based.

For orientation: ILS means how much longer treated animals lived than controls. For `C=C1[C@H](n2ccc(N)nc2=O)O[C@H](COP(=O)([O-])OC[C@@H](COC(=O)CCCCCCCCCCCCCCC)OC(=O)CCCCCCCCCCCCCCC)[C@H]1O.[Na+]`, the Survivors in the assay with Mus musculus [1] stood at 1; in the assay on Mus musculus [3], 4. The increase in life span (ILS) is on record as 121% in the assay on Mus musculus [2], over 179% in the assay on Mus musculus [4] and 64% with Mus musculus [5].
Turning to `C=C1C(n2ccc(N)nc2=O)O[C@H](CO)[C@@H]1O` (some centres undefined), the Survivors in the assay on Mus musculus [1] and in the assay with Mus musculus [6] was 0 in each case. The ILS worked out at 44% in the assay with Mus musculus [2], 116% with Mus musculus [4] and 68% in the assay on Mus musculus [5].
`C=C1[C@H](n2cc(F)c(N)nc2=O)O[C@H](COP(=O)([O-])OC[C@H](COC(=O)CCCCCCCCCCCCCCC)OC(=O)CCCCCCCCCCCCCCC)[C@H]1O.[Na+]` showed a Survivors in the assay on Mus musculus [1] of 3. Besides, the ILS with Mus musculus [2] was over 179%; with Mus musculus [5], 96%; in the assay on Mus musculus [7], “Toxic”.
